# Data from patent US20060009512A1, “5-ht 1b/1d receptor agonists for the treatment of headache resulting from administering an endothelin receptor antagonist” (priority 2002, published 2006).
# Entries after “also recorded” stand apart in the source; their conditions may differ.
# Columns and labels:
# [1] = cancer patients, doses of 20 mg and above; cited from earlier work
# [2] = man, recommended dose of 125-250 mg bid; cited from earlier work
# [3] = Clinical study of safety and tolerability of multiple doses of ZD4054 in healthy young volunteers; type: in vivo, man
# Protocol: (§1) A study was undertaken to assess the safety and tolerability of multiple doses of ZD4054 in healthy young volunteers at dose levels of 100 mg, 50 mg and 25 mg daily.
# (§2) At the 100 mg dose level 16 volunteers participated (12 active and 4 placebo). They received a 100 mg ZD4054 or placebo single dose and one week later commenced daily dosing. Dosing was stopped within 3-5 days of continuous dosing in the majority of ZD4054 treated subjects due to headache. Of the 12 subjects receiving ZD4054, 10 were additionally given zolmitriptan (2.5 mg tablets) at some stage (in addition to paracetamol and in some cases ibuprofen).
# (§3) Note: all subjects received paracetamol (1 g every 4 hours for the first 16 hours post the first dose of ZD4054) on the first day of multiple dosing. Analgesics were given as required.
# [4] = Treatment of ZD4054 induced headache in subjects of the clinical study (zolmitriptan, standard analgesics); type: in vivo, man; conditions: for effect of standard analgesic therapy on ZD4054 induced headaches: subjects with ZD4054 induced headache
# Protocol: Based on citations by Carducci (Carducci, 2002) a number of “standard analgesic therapies” were tried, including paracetamol, ibuprofen and codeine to treat the ZD4054 induced headaches.
# as §1, §2, §3
# An explanation of CTC grades which stands for Common Toxicity Criteria, can be found in a document from the National Institute of Health, Version 2.0, DCTD, NCI, NIH, DHHS March 1998.
smiles,measurement,setting,value
CCCCN(CCCC)C(=O)CN1C[C@H](c2ccc3c(c2)OCO3)[C@@H](C(=O)O)[C@@H]1c1ccc(OC)cc1 [Atrasentan],incidence of headache,[1],50-100%
COc1ccccc1Oc1c(NS(=O)(=O)c2ccc(C(C)(C)C)cc2)nc(-c2ncccn2)nc1OCCO [Bosentan],subjects with induced headaches,[2],22%
"COc1nc(C)cnc1NS(=O)(=O)c1cccnc1-c1ccc(-c2nnco2)cc1 [ZD4054, N-(3-methoxy-5-methylpyrazin-2-yl)-2-(4-[1,3,4-oxadiazol-2-yl]phenyl)pyridine-3-sulphonamide]",time of continuous dosing until dosing was stopped due to headache,"[3]; 100 mg daily, majority of ZD4054 treated subjects",3 to 5 days
same,induction of headache in man,[3]; clinical testing in man,induces headaches in man
COc1ccc2c3c1O[C@H]1[C@@H](O)C=C[C@H]4[C@@H](C2)N(C)CC[C@@]341 [codeine],effect of standard analgesic therapy on ZD4054 induced headaches,[4],several subjects still reported persistent headache
CC(C)Cc1ccc(C(C)C(=O)O)cc1 (centres unmarked) [ibuprofen],effect of standard analgesic therapy on ZD4054 induced headaches,[4],several subjects still reported persistent headache
CC(=O)Nc1ccc(O)cc1 [paracetamol],improvement of headache,"[4]; Subject 7, CTC grade 2 headache, second day of multiple dosing",little improvement
same,headache grade despite treatment,"[4]; Subject 10, second day, increased from CTC grade 1",3 CTC grade
same,effect of standard analgesic therapy on ZD4054 induced headaches,[4],several subjects still reported persistent headache
CN(C)CCc1c[nH]c2ccc(C[C@H]3COC(=O)N3)cc12 [zolmitriptan],headache grade after treatment,"[4]; Subject 7, from CTC grade 2 on second day of multiple dosing, 2.5 mg plus 2.5 mg 50 mins later, 1-1.5 hours later",1 CTC grade
same,headache grade after treatment,"[4]; Subject 10, day 3, from CTC grade 3, 2.5 mg plus 2.5 mg 50 mins later, 2.5 h later",1 CTC grade
same,headache grade after treatment,"[4]; Subject 10, second day, from CTC grade 3, 2.5 mg",2 CTC grade
same,patients noting at least at one stage that their headache was alleviated,"[4]; of 10 subjects given zolmitriptan 2.5 mg tablets, ZD4054 100 mg",Seven
same,effect on intensity/severity of ZD4054 induced headache,"[4]; subjects in which standard analgesic therapy had failed, 2.5-5 mg orally",effective in reducing the intensity of ZD4054 induced headaches in some subjects; also recorded: effective in reducing the severity of headache
